Results as given in ChEMBL document CHEMBL5441456, “ASAP - SARS-CoV-2 nsp3 macrodomain dose response” (2024).
Where “and” joins values, the source holds several entries; their conditions need not be identical. Equal entries are not always repeated.

molecular target: Replicase polyprotein 1ab (Severe acute respiratory syndrome coronavirus 2, UniProt P0DTD1); assay: Functional biochemical assay to identify treatments for viral infectious disease that targets SARS-COV-2 nsp3 macrodomain, whereby the mechanism of action displaces an ADP-Ribose modified peptide from the binding site. Utilizing a time-resolved fluorescence method to measure binding by reading the emitted fluorescence intensity in two wavelengths.

SMILES | IC50
CC(C)[C@@H](Nc1c(N)cnc2[nH]ccc12)c1ccc2c(c1)S(=O)(=O)CCC2 | > 99.5 µM
Cc1[nH]c2ncnc(NC(=O)[C@@H]3CCO[C@@H]3C)c2c1C | 122 µM
COc1ccc([C@@H]2CN(C(=O)c3ncnc4[nH]ccc34)C[C@H]2C(=O)O)cc1 | > 99.5 µM
CC(C)[C@@H](Nc1ncnc2[nH]c(-c3ccc(S(N)(=O)=O)c4nsnc34)cc12)c1ccc2c(c1)S(=O)(=O)CCC2 | 0.242 µM
Cc1nn(CC(N)=O)cc1-c1cc2c(N[C@@H](c3ccc4c(c3)OCCO4)C(C)C)ncnc2[nH]1 | 0.33 µM and 0.341 µM
CC(C)[C@@H](Nc1ncnc2[nH]ccc12)c1ccc2c(n1)NC(=O)CO2 | 2.61 µM and 2.71 µM
CC(C)[C@@H](Nc1ncnc2[nH]ccc12)c1ccc2cn[nH]c2c1 | > 99.5 µM
CCNC(=O)c1cc2c(N[C@@H](c3cccc(-c4ccc(OC)nc4)c3)C(C)C)ncnc2[nH]1 | 20.9 µM and 17.7 µM
O=C(O)C[C@@H](NC(=O)c1ccnc(-n2cccc2)c1)c1ccc(Br)cc1 | > 99.5 µM
Cc1nnn(C)c1-c1cc2c(N[C@@H](c3ccc4c(c3)OCCO4)C(C)C)ncnc2[nH]1 | 10.1 µM and 8.67 µM
Cc1cnn(-c2ccc(-c3cc4c(N[C@@H](c5ccc6c(c5)OCCO6)C(C)C)ncnc4[nH]3)cc2)c1 | > 99.5 µM
COc1ccc2c(c1)CCN(c1ncnc3[nH]ccc13)[C@H]2C(C)C | 14.2 µM and 12 µM
CC(C)[C@H](Oc1cc(N)ncn1)c1ccc2c(c1)S(=O)(=O)CCC2 | 59.8 µM
CC(C)[C@@H](Nc1ncnc2[nH]c(C(=O)NC3CN(C)C3)cc12)c1ccc2c(c1)S(=O)(=O)CCC2 | 0.189 µM
CC(C)[C@H](Nc1ncnc2[nH]ccc12)C(=O)O | 34.1 µM and 33.8 µM
O=C(O)[C@@H](Nc1ncnc2[nH]ccc12)c1ccc2c(c1)OCCO2 | 9.41 µM and 7.95 µM
Cc1nc2c(C(=O)N[C@@H](CC(=O)O)c3ccc(Br)cc3)ccnc2[nH]1 | 20.6 µM and 20.2 µM
Cc1[nH]c2ncnc(NC(=O)c3ncccc3Cl)c2c1C | 49.3 µM and 60.3 µM
CC(C)(NC(=O)c1ncnc2[nH]ccc12)c1cc(C(=O)O)[nH]n1 | > 99.5 µM
O=C(Nc1ccc(C(=O)Nc2c(C(=O)O)sc3ccncc23)cc1)NC1CC1 | > 99.5 µM
Cc1[nH]c2ncnc(NC(=O)c3cccnc3)c2c1C | > 99.5 µM
O=C(Nc1ccc(C(=O)Nc2c(C(=O)O)sc3ncccc23)cc1)NC1CC1 | > 99.5 µM
O=C(Nc1ccc(C(=O)Nc2c(C(=O)O)oc3cc(Br)ccc23)cc1)NC1CC1 | > 99.5 µM
O=C(O)c1cnc(C(=O)N2CCC(c3ccn4ncc(C(=O)N5CCCCC5)c4c3)CC2)cn1 | > 99.5 µM

SMILES | IC50
CC(C)[C@@H](Nc1ncnc2[nH]c(-c3cnn([C@@H](C)C(N)=O)c3)cc12)c1ccc2c(c1)OCCO2 | 0.422 µM and 0.498 µM and 0.497 µM
CC(C)C[C@@H](Nc1ncnc2[nH]ccc12)C(=O)O | > 99.5 µM
CCc1cnn(C)c1NC(=O)c1ncnc2[nH]ccc12 | > 99.5 µM
CC(C)[C@@H](NC(=O)c1cnn(-c2ccccc2)n1)c1ccc2c(c1)OCCO2 | > 99.5 µM
CCNC(=O)c1cc2c(N[C@H](c3ccc4nc(NC(C)=O)sc4c3)C(C)C)ncnc2[nH]1 | 30.1 µM
CC(C)[C@@H](Nc1ncnc2[nH]c(-c3ccc(S(N)(=O)=O)cc3)cc12)c1ccc2c(c1)OCCO2 | 1.63 µM and 1.81 µM
CC(C)[C@@H](Nc1ncnc2[nH]ccc12)c1ccc2nn[nH]c2c1 | 3.5 µM and 4.1 µM and 4.03 µM
CC(C)[C@@H](Nc1ncnc2[nH]c(-c3cccc(-n4cnnn4)c3)cc12)c1ccc2c(c1)S(=O)(=O)CCC2 | 0.241 µM
CS(=O)(=O)NC1CCC(Nc2ccc([C@@H](CC(=O)O)NC(=O)c3ncnc4[nH]ccc34)cc2)CC1 (stereo not given in full) | 73.7 µM and 86 µM
CC(C)[C@@H](Nc1ncnc2[nH]cc(S(N)(=O)=O)c12)c1ccc2c(c1)OCCO2 | 3.43 µM and 3.07 µM
CC(C)[C@@H](Nc1cc(NCC(F)(F)F)ncn1)c1ccc2c(c1)S(=O)(=O)CCC2 | 2.25 µM
CC(C)[C@@H](Nc1ncnc2[nH]ccc12)c1ccc2c(c1)CCNC2=O | 15.3 µM and 15 µM
CCNC(=O)c1cc2c(NC3(c4ccc5c(c4)S(=O)(=O)CCC5)CC3)ncnc2[nH]1 | 24.6 µM
CCNC(=O)c1cc2c(N[C@@H](c3cnc(NC(C)=O)s3)C(C)C)ncnc2[nH]1 | 4.35 µM and 5.38 µM and 4.14 µM
CCc1n[nH]cc1-c1cc2c(N[C@@H](c3ccc4c(c3)OCCO4)C(C)C)ncnc2[nH]1 | 1.19 µM and 0.961 µM
Cc1n[nH]c(C)c1-c1cc2c(N[C@@H](c3ccc4c(c3)OCCO4)C(C)C)ncnc2[nH]1 | 31.7 µM
CCNC(=O)c1cc2c(N[C@H](c3ccc4c(c3)OCCO4)C(C)C)ncnc2[nH]1 | 46.8 µM
CC(C)[C@@H](Nc1ncnc2[nH]ccc12)c1ccc2c(c1)[S+]([O-])CCO2 (stereo not given in full) | 0.604 µM and 0.628 µM
Cc1[nH]c2ncnc(NC(=O)[C@@H](CC(F)F)C3CCC3)c2c1C | 8.19 µM and 8.22 µM
O=C(O)[C@@H]1[C@@H](c2ccccc2)CCN1c1ncnc2[nH]ccc12 | > 99.5 µM
CC(C)[C@@H](Nc1ncnc2[nH]c(-c3cc(O)nc4ccccc34)cc12)c1ccc2c(c1)S(=O)(=O)CCC2 | 1.67 µM
CC(C)[C@H](Nc1ncncc1N1CCNCC1)c1ccc2c(c1)S(=O)(=O)CCC2 | > 99.5 µM
Cc1[nH]c2ncnc(NC(=O)c3ccc(Cl)nn3)c2c1C | > 99.5 µM
CC(C)[C@@H](Nc1ncnc2[nH]c(-c3ccnn3C(C)C)cc12)c1ccc2c(c1)OCCO2 | 3.02 µM and 2.94 µM

SMILES | IC50
CC(C)[C@H](Nc1cccc2nc[nH]c(=O)c12)c1ccc2c(c1)S(=O)(=O)CCC2 | > 99.5 µM
Cc1cn[nH]c1-c1cc2c(N[C@@H](c3ccc4c(c3)OCCO4)C(C)C)ncnc2[nH]1 | 6.78 µM and 8.84 µM and 8.77 µM
CC(C)[C@@H](Nc1ncnc2[nH]c(C(=O)NCc3nncn3C)cc12)c1ccc2c(c1)OCCO2 | 1.39 µM and 1.23 µM
O=C(O)[C@H](CC1CC1)Nc1ncnc2[nH]ccc12 | > 99.5 µM
Cn1ncc2c(NCc3ncccc3O)ncnc21 | > 124 µM
O=S(=O)(Cc1ccc(F)cc1)Nc1cnc2[nH]ccc2c1 | > 99.5 µM
CC(C)[C@@H]1C[C@H](Nc2[nH]cnc3nccc2-3)CCO1 | > 99.5 µM
NC(=O)C[C@@H](NC(=O)c1ncnc2[nH]ccc12)C1CCCCC1 | > 99.5 µM
Cn1c(C(=O)O)c(NC(=O)c2ccc(NC(=O)NC3CC3)cc2)c2cccnc21 | > 99.5 µM
CNC(=O)c1c[nH]c2ncnc(N[C@@H](c3ccc4c(c3)NC(=O)CO4)C(C)C)c12 | 0.306 µM
CC(C)[C@@H](Nc1ncnc2[nH]ccc12)c1cccc(C(F)(F)F)c1 | 83.2 µM and 77.6 µM
COc1ccc([C@@H](Nc2ncnc3[nH]ccc23)C(C)C)cc1OC | > 99.5 µM
CCNC(=O)c1cc2c(N[C@@H](c3ccc4c(n3)NC(=O)CO4)C(C)C)ncnc2[nH]1 | 1.06 µM and 0.574 µM
CC(C)[C@@H](Nc1ccnc2[nH]ccc12)c1ccc2c(c1)S(=O)(=O)CCC2 | > 99.5 µM
CC(C)[C@@H](Nc1ncnc2[nH]c(-c3cnc4c(c3)nnn4C)cc12)c1ccc2c(c1)S(=O)(=O)CCC2 | 0.241 µM and 0.131 µM and 0.349 µM
CNC(=O)c1cccc(-c2cc3c(N[C@H](c4ccc5c(c4)S(=O)(=O)CCC5)C(C)C)ncnc3[nH]2)c1 | 0.014 µM and 0.026 µM and 0.01 µM and 0.02 µM and 0.022 µM and 0.027 µM and 0.029 µM
O=C(N[C@@H](C(=O)O)C1Cc2ccccc2C1)c1ncnc2[nH]ccc12 | > 99.5 µM
CC(C)[C@@H](Nc1cccc2nc[nH]c(=O)c12)c1ccc2c(c1)S(=O)(=O)CCC2 | > 99.5 µM
C[C@@H](Nc1ncnc2[nH]ccc12)[C@@H]1CCOC1 | > 99.5 µM
c1ccc2c(N[C@@H](c3ccc4c(c3)OCCO4)C3CC3)ncnc2c1 | > 99.5 µM
CNCc1cc(-c2cc3c(N[C@@H](c4ccc5c(c4)OCCO5)C(C)C)ncnc3[nH]2)co1 | 0.281 µM and 0.383 µM
CC(C)[C@@H](Nc1ncnc2[nH]c(-c3ccc(C4(C#N)CC4)cc3)cc12)c1ccc2c(c1)OCCO2 | > 99.5 µM
CC(C)[C@@H](Nc1ncnc2[nH]c(C(=O)NCC(C)(C)C#N)cc12)c1ccc2c(c1)OCCO2 | 2.1 µM and 4.22 µM
Cc1cc(-c2cc3c(N[C@@H](c4ccc5c(c4)OCCO5)C(C)C)ncnc3[nH]2)nn1C | 2.79 µM and 1.62 µM

SMILES | IC50
CC(C)[C@@H](Nc1cc(N2CCC[C@H]2C(=O)O)ncn1)c1ccc2c(c1)S(=O)(=O)CCC2 | > 99.5 µM
CC(C)[C@@H](Nc1ncnc2c1cnn2C)c1ccc2c(c1)OCCO2 | > 99.5 µM
O=C(N[C@@H](CO)Cc1ccncc1)c1ncnc2[nH]ccc12 | > 99.5 µM
Cc1ccc2c(c1)C[C@@H](C(=O)N(C)CC[C@@H](Nc1ncnc3[nH]ccc13)C(C)C)S2 | > 99.5 µM
O=C(O)[C@@H]1C[C@@H]2OCC[C@@H]2N1c1ncnc2[nH]ccc12 | > 99.5 µM
CS(=O)(=O)NC1CCC(Nc2ccc([C@@H](CC(=O)O)NC(=O)c3c[nH]c4ncncc34)cc2)CC1 (stereo not given in full) | > 99.5 µM
O=C(O)C[C@@H](NC(=O)c1ncnc2[nH]c3cc(F)ccc3c12)c1ccc(Br)cc1 | 0.992 µM and 1.01 µM
CNC(=O)c1cccc(-c2cc3c(N[C@@H](c4ccc5c(c4)OCCO5)C(C)C)ncnc3[nH]2)c1 | 0.416 µM and 0.475 µM and 0.383 µM
CC(C)[C@@H](Nc1ncnc2[nH]c(-c3cccc(NC(N)=O)c3)cc12)c1ccc2c(c1)OCCO2 | 5.14 µM and 5.85 µM
CC(C)[C@@H](NC(=O)c1ncnc2[nH]ccc12)c1ccc2c(c1)S(=O)(=O)CCC2 | > 99.5 µM
CC(C)[C@@H](Nc1ncnc2[nH]c(C(=O)NCCc3cnco3)cc12)c1ccc2c(c1)OCCO2 | 0.954 µM and 1.91 µM
CNc1nc(N[C@@H](c2ccc3c(c2)OCCO3)C(C)C)c2cc[nH]c2n1 | > 99.5 µM
CC(C)[C@@H](NC(=O)c1ccnc2ccccc12)c1ccc2c(c1)OCCO2 | > 99.5 µM
Cc1[nH]c2ncnc(NC(=O)Cc3cn[nH]c3)c2c1C | 75.2 µM and 99 µM
CC(C)[C@@H](Nc1ncnc2[nH]c([C@@]3(O)CCOC3)cc12)c1ccc2c(c1)OCCO2 | 9.98 µM and 23 µM
CC(C)[C@@H](Nc1ncnc2[nH]c(-c3ccnc(N4CCCC4)c3)cc12)c1ccc2c(c1)OCCO2 | 16.6 µM and 17.2 µM
CC(C)(C)[C@H](Nc1ncnc2[nH]c(-c3cnn(CC(N)=O)c3)cc12)c1ccc2c(n1)OCCO2 | 14.1 µM and 10.7 µM
N#CCc1cccc(S(=O)(=O)Nc2cnc3[nH]ccc3c2)c1 | > 99.5 µM
CNCc1cc(-c2cc3c(N[C@@H](c4ccc5c(c4)S(=O)(=O)NCC5)C(C)C)ncnc3[nH]2)co1 | 65 nM and 70 nM (2×) and 108 nM
O=C(Nc1ccc(C(=O)NCc2c(C(=O)O)[nH]c3ccccc23)cc1)NC1CC1 | 13.6 µM
CC(C)[C@@H](CCN(C)C(=O)c1cc2nccnc2cc1F)Nc1ncnc2[nH]ccc12 | > 99.5 µM
CC(C)[C@@H](Nc1ncnc2[nH]c([C@@]3(O)CCCNC3)cc12)c1ccc2c(c1)OCCO2 | 17.8 µM and 13.9 µM
O=C(O)[C@H]1CCCCCN1C(=O)c1ncnc2[nH]ccc12 | > 124 µM
